Laboratory results from US12016858B2, “Methods for the treatment of abnormal involuntary movement disorders” (AUSPEX PHARMACEUTICALS, INC., priority 2015, dated 2024).

System: motor and phonic tics of TS
Test: Open-label pilot study of safety and efficacy in TS patients
Type: in vivo, human
Set-up: key to VTSS, Mean / TTS, Mean / GSS, Mean / MTSS, Median / TTS, Median / GSS, Median / MTSS change, Mean / VTSS change, Mean / TTS change, Mean / MTSS change, Median / VTSS change, Median / TTS change, Median: Yale Global Tic Severity Scale (YGTSS) scores
Source text: An open-label, pilot study was undertaken 1) to evaluate the safety and tolerability of treatment with deutetrabenazine, and 2) to evaluate the efficacy of deutetrabenazine to suppress the motor and phonic tics of TS. Study Design. Inclusion criteria (at screening, unless otherwise indicated) included: 12 to 18 years of age, inclusive; […] Throughout the study, an independent rater assessed tic severity with the Yale Global Tic Severity Scale (YGTSS) and tic impact with the TS-Clinical Global Impression (TS-CGI) scale. The independent rater will not have knowledge of the subject's clinical care, including medications or reports of adverse events (AEs). Dose regimen. Study drug was available in five dose strengths: 6, 9, 12, 15, and 18 mg, all of which were identical in size, shape, and color (white). […] Subjects then maintained that dose level for the duration of the treatment period. Subjects who were receiving CBIT (Comprehensive Behavioral Intervention for Tics) therapy were permitted to participate as long as therapy had been stable/ongoing for at least 4 weeks before Screening and was expected to be stable for the duration of the trial. Study drug was dosed as follows. All treatment doses were administered with meals. A daily dose of 6 mg was given once a day in the morning, and daily doses of 12 mg and higher were administered twice daily in divided doses, approximately 10 hours apart during the day. The starting dose was deutetrabenazine 6 mg in the AM. The dose of study drug was optionally adjusted weekly in increments of 6 mg/day during the titration period to identify a dose level that suppressed tics and was well tolerated. Dose reductions were in increments of 6 mg/day. In this study, the maximum total daily dose of deutetrabenazine at the Week 5 visit or later was 36 mg (18 mg twice daily [BID]). Titration period (6 weeks). […] Safety evaluations during titration included assessment of vital signs, monitoring for adverse events, and rating scales for depression and suicidal ideation and behavior. In-person study visits were scheduled at Weeks 2 and 4 after initiating therapy and telephone contacts were scheduled for Weeks 1, 3, 5, and 6 after initiating therapy in order to assess tic suppression and adverse events. The YGTSS and TS-CGI were assessed by an independent rater. The Investigator, in consultation with the subject and parent/guardian, determined when an adequate level of tic suppression had been achieved. The dose of deutetrabenazine was increased on a weekly basis until there was adequate suppression of tics, the subject experienced a protocol-defined “clinically significant” AE (defined as an AE that is related to study medication and either (1) moderate or severe in intensity or (2) meets the criteria for a serious adverse event [SAE]), or the maximal allowable dose was reached. Although dose adjustments could made up to and including the Week 5 phone call, if a stable dose was reached before then, the subject continued on that dose for the remainder of the titration period and throughout maintenance dosing. Once adequate suppression of tics had been achieved, the dose of study drug was not increased further. If a subject experienced a “clinically significant” AE that was attributed to study drug, the Investigator used his or her judgment to determine if a dose reduction or suspension was necessary. Dose adjustments were to be made based on all available information, including the subject and parent/guardian reports of AEs and tic suppression, the clinical assessment of safety and efficacy by the Investigator, as well as information from rating scales. At the end of the titration period, the subject's dose was established for the maintenance period. Maintenance period (2 weeks). Subjects continued to receive their maintenance dose over the next 2 weeks, although dose reductions for AEs were allowed. […]

SMILES: [2H]C([2H])([2H])Oc1cc2c(cc1OC([2H])([2H])[2H])C1CC(=O)C(CC(C)C)CN1CC2 (stereo not drawn) [deutetrabenazine, (RR, SS)-1,3,4,6,7,11b-hexahydro-9,10-di(methoxy-d3)-3-(2-methylpropyl)-2H-benzo[a]quinolizin-2-one]
- TS-CGI mean score (Week 8, from a baseline of 4.7, 7 point scale, lower is better): 3.7
- GSS, Mean (Wk 2): 59.4
- GSS, Median (Wk 2): 57
- MTSS, Mean (Wk 2): 15.9
- MTSS, Median (Wk 2): 16
- TTS, Mean (Wk 2): 29.4
- TTS, Median (Wk 2): 28
- VTSS, Mean (Wk 2): 13.5
- VTSS, Median (Wk 2): 14
- GSS, Mean (Wk 4): 51.1
- GSS, Median (Wk 4): 51
- MTSS, Mean (Wk 4): 14.2
- MTSS, Median (Wk 4): 14
- TTS, Mean (Wk 4): 26.3
- TTS, Median (Wk 4): 27
- VTSS, Mean (Wk 4): 12.1
- VTSS, Median (Wk 4): 12
- GSS, Mean (Wk 8): 45.1
- GSS, Median (Wk 8): 47
- Impairment, Mean (Wk 8): 22.9
- Impairment, Median (Wk 8): 20
- MTSS, Mean (Wk 8): 12.0
- MTSS, Median (Wk 8): 11
- TTS, Mean (Wk 8): 21.2
- TTS, Median (Wk 8): 23
- VTSS, Mean (Wk 8): 9.2
- VTSS, Median (Wk 8): 9
- GSS, Mean (Wk 9 (washout)): 51.7
- GSS, Median (Wk 9 (washout)): 51
- MTSS, Mean (Wk 9 (washout)): 13.9
- MTSS, Median (Wk 9 (washout)): 14.5
- TTS, Mean (Wk 9 (washout)): 25.6
- TTS, Median (Wk 9 (washout)): 26
- VTSS, Mean (Wk 9 (washout)): 11.7
- VTSS, Median (Wk 9 (washout)): 10.5
- PGIC mean improvement (after 8 weeks of treatment, 7-point scale, preliminary): 1.8 points
- patients much or very much improved (PGIC) (after 8 weeks of treatment, preliminary): about 75%
- motor and vocal tics (FIG. 9) (baseline through week 8): lowered (improved) both motor and vocal tics
- GSS change, Mean (Δ B-Wk 2): −7.7
- GSS change, Median (Δ B-Wk 2): 0
- MTSS change, Mean (Δ B-Wk 2): −1.9
- MTSS change, Median (Δ B-Wk 2): 0
- TTS change, Mean (Δ B-Wk 2): −2.9
- TTS change, Median (Δ B-Wk 2): 0
- VTSS change, Mean (Δ B-Wk 2): −1.0
- VTSS change, Median (Δ B-Wk 2): 0
- GSS change, Mean (Δ B-Wk 9): −14.7
- GSS change, Median (Δ B-Wk 9): −10.5
- MTSS change, Mean (Δ B-Wk 9): −3.4
- MTSS change, Median (Δ B-Wk 9): −3
- TTS change, Mean (Δ B-Wk 9): −6.3
- TTS change, Median (Δ B-Wk 9): −5
- VTSS change, Mean (Δ B-Wk 9): −2.9
- VTSS change, Median (Δ B-Wk 9): −2.5
